The target in assay [1] is T1, CDK1 (Homo sapiens, UniProt P06493).
T1 construct: purchased New England Biolabs, Beverly, Mass; 6020; host or cells: insect cells
Put plainly: CDK-1 kinase screening assay (33P-ATP FlashPlate). To be noted: human CDK1 with cyclin B; 10 μM ATP; 1 hr at 30° C. It counts as biochemical. How it is done: A kinase reaction mixture was prepared containing 50 mM Tris-HCl pH=8, 10 mM MgCl2, 0.1 mM […], 1 mM DTT, 10 μM ATP, 0.025 μM biotinylated histone-H1 peptide substrate and 0.2 μCuries per well ^33P-γ-ATP (2000-3000 Ci/mmol). 70 μL of the kinase reaction mixture was dispensed into the well of a streptavidin coated FlashPlate™ (Cat. # SMP103, NEN, Boston, Mass.).
Test compound stock in 100% DMSO (1 μL) was added to the wells resulting in a final concentration of 1% DMSO in the reaction with a 100 μL final reaction volume. Each enzyme was diluted in 50 mM Tris-HCl pH=8.0, 0.11% BSA and 30 μL was added to each well to initiate the reaction. The reaction was incubated for one hour at 30° C. At the end of the 1 hr incubation, the reaction was terminated by aspirating the mixture from the plate and washing the wells twice with PBS containing 100 mM EDTA. The biotinylated peptide substrate became immobilized on the Flashplate™ and the incorporation of ^33P-γ-ATP was measured by reading the plate on a scintillation counter. Inhibition of the enzymatic activity was measured by observing a reduced amount of ^33P-γ-ATP incorporated into the immobilized peptide.
The CDK1 enzyme was isolated from insect cells expressing both the human CDK1 catalytic subunit (Accession number NM_001786) and its positive regulatory subunit cyclin B (New England Biolabs, Beverly, Mass.; Cat. # 6020). The assay used 30 ng of the N-terminal biotinylated peptide biotin-[…]-amide (Cyclin dependent kinase 1) per well.
A maximum and minimum signal for the assay was determined on each plate. The percent inhibition of a test compound was calculated according to the formula: […]
For a series of test concentrations, the IC50 was derived by graphing percent inhibition against the log of the concentrations tested for a given compound with results shown in Table 1.
For compounds with multiple values, each value represents a separate assay result.

Assay [2] has as its target T2, VEGF-R2 (Rattus norvegicus, UniProt O08775).
T2 construct: polyhistidine (N)
Put plainly: VEGF-R2 kinase screening assay (33P-ATP FlashPlate).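 Note: Read-out is ³³P incorporation from ³³P-γ-ATP into biotinylated peptide substrate captured on streptavidin FlashPlate, counted by scintillation, 1% DMSO final, inhibition scaled between per-plate maximum and minimum signals.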 The format is biochemical. To be noted: rat VEGF-R2 kinase domain; 10 μM ATP; 1 hr at 30° C.

Assay [3] deals with T3, HER2 (Homo sapiens, UniProt P04626).
T3 construct: GST (Glutathione-S-Transferase) (N); HIS6 (N); thrombin cleavage site (N); purchased Proqinase, Freiburg, Germany
T3 sequence (P04626 679-1255): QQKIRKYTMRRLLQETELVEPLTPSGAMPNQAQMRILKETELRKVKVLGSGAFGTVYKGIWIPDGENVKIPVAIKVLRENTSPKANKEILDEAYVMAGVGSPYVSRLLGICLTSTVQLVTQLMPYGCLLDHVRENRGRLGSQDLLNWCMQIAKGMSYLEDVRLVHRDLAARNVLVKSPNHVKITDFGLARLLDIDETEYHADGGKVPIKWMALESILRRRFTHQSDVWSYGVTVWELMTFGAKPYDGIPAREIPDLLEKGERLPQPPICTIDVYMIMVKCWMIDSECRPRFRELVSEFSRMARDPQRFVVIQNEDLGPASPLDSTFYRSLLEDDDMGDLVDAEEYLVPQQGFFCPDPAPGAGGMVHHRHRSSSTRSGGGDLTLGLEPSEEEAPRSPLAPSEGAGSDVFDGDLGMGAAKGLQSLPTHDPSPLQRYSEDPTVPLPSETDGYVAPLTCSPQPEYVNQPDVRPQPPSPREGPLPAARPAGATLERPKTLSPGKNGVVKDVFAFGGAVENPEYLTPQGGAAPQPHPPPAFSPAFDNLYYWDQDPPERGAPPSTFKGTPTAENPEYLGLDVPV
Put plainly: HER2 kinase screening assay (33P-ATP FlashPlate).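 Note: Biotin-poly(GT) 4:1 peptide captured on streptavidin FlashPlate, 33P transfer from γ-ATP read by scintillation counting, lower incorporation means inhibition, 1% DMSO final, 100 µL reaction.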 The settings on record: GST-HIS6 HER-2 aa 679 to 1255; 10 μM ATP; 1 hr at 30° C. It counts as biochemical.

The subject of assay [4] is HeLa cervical adenocarcinoma. The assay is described as follows: Cell Proliferation Inhibition Assay (14C-thymidine incorporation), HeLa.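 Note: test compound in DMSO added to cells seeded in scintillating 96-well plates, DMSO-only wells as control, uptake of methyl 14C-thymidine into new DNA counted.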 The format is cell-based. The settings on record: Homo sapiens, HeLa cells.
The test system of assay [5] is A375 malignant melanoma. The assay is described as follows: Cell Proliferation Inhibition Assay (14C-thymidine incorporation), A375.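 Note: proliferation measured by radiolabelled thymidine uptake into new DNA, counted in scintillating 96-well plates, compound-treated wells compared with DMSO-only control wells.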 It counts as cell-based. The settings on record: Homo sapiens, A-375, A375 cells. (In general: Dividing cells build labelled thymidine or BrdU into new DNA.)
Assay [6] concerns HCT-116 colon carcinoma. Put plainly: Cell Proliferation Inhibition Assay (14C-thymidine incorporation), HCT-116.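 Note: proliferation measured as methyl 14C-thymidine uptake into new DNA, counted in 96-well scintillating microplates, compared with DMSO-only control wells.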 To be noted: Homo sapiens. It counts as cell-based.
Assay [7] has as its target T4, Aurora-A (Mus musculus, UniProt P97477).
T4 construct: polyhistidine (N)
T4 sequence (P97477 1-395): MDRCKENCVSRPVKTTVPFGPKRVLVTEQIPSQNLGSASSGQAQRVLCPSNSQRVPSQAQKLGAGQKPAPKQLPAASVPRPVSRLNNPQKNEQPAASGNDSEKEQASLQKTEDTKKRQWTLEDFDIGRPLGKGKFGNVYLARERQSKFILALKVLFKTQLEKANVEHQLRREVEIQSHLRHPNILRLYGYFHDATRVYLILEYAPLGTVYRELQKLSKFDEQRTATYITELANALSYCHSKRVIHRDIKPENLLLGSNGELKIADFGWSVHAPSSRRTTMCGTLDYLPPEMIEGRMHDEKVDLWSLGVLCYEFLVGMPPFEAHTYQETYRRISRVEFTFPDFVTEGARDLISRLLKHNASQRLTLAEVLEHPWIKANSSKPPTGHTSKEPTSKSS
Put plainly: Aurora-A kinase screening assay (33P-ATP FlashPlate).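 Note: His-tagged mouse Aurora-A phosphorylating a biotinylated peptide captured on streptavidin plates, read as 33P uptake by scintillation counting, 1% DMSO, inhibition scaled between per-plate maximum and minimum signals.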 The settings on record: 10 μM ATP, 1 hr at 30° C. It counts as biochemical.

16 compounds from patent US7541367B2, “3-benzoimidazolyl-pyrazolopyridines useful in treating kinase disorders” (Janssen Pharmaceutica, N.V., priority 2005, dated 2009) can be followed below.

Usually IC50 stands for the midpoint of a concentration-inhibition curve.

T1 sequence (P06493 whole entry): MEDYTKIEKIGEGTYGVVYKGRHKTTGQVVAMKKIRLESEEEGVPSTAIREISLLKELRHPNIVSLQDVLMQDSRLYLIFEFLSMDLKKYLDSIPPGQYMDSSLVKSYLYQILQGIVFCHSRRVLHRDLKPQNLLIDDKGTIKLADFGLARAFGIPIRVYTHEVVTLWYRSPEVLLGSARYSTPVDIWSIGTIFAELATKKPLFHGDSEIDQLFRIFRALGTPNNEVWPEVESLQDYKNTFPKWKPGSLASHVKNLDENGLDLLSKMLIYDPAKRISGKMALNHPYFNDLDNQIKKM
T1 sequence (P14635 whole entry partner): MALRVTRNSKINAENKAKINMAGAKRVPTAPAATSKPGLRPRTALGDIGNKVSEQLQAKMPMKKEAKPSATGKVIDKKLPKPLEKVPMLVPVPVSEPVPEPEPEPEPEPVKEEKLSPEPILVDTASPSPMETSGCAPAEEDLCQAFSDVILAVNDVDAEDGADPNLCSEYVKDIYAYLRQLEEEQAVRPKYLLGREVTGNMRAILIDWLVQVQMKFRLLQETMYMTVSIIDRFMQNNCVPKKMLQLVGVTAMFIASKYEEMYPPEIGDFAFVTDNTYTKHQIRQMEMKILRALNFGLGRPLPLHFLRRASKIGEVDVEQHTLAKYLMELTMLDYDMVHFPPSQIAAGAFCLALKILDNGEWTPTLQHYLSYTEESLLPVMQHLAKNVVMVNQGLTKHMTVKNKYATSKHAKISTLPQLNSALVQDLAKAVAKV
T2 sequence (O08775 786-1343): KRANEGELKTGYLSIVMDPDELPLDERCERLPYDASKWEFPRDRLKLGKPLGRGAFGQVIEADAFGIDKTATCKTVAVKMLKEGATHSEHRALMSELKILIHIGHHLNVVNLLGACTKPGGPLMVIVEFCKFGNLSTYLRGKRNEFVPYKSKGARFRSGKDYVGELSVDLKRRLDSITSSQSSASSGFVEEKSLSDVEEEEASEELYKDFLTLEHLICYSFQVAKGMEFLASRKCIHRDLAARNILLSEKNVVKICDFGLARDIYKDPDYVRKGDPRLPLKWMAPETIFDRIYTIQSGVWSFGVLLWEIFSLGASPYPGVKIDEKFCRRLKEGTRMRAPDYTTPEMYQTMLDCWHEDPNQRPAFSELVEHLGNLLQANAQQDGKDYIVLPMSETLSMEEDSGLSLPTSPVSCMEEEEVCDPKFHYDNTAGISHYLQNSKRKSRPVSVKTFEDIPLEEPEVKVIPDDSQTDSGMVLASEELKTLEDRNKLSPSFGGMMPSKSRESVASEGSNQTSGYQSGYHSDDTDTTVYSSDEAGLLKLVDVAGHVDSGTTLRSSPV

With `c1ccc2c(-c3cnc4[nH]nc(-c5nc6ccccc6[nH]5)c4c3)cncc2c1` [Cpd 1, 4-[3-(1H-benzoimidazol-2-yl)-1H-pyrazolo[3,4-b]pyridin-5-yl]-isoquinoline], the IC50 in assay [1] stood at 23.3 nM; in assay [2], 1460 nM; in assay [3], 141 nM.
For `Cc1cccc2[nH]c(-c3n[nH]c4ncc(-c5cncc6ccccc56)cc34)nc12` [Cpd 2, 4-[3-(4-methyl-1H-benzoimidazol-2-yl)-1H-pyrazolo[3,4-b]pyridin-5-yl]-isoquinoline], the IC50 in assay [1] was 96.7 nM; in assay [4] (HeLa), 3090 nM; in assay [5], 1720 nM; in assay [6] (HCT-116, HCT-116 cells), 1640 nM.
As to `CCN(CC)Cc1cccc2[nH]c(-c3n[nH]c4ncc(-c5cncc6ccccc56)cc34)nc12` [Cpd 5, diethyl-[2-(5-isoquinolin-4-yl-1H-pyrazolo[3,4-b]pyridin-3-yl)-1H-benzoimidazol-4-ylmethyl]-amine], the IC50 is 1550 nM in assay [2]; 28.9 nM in assay [4] (HeLa); 46.7 nM in assay [5]; 30.6 nM in assay [6] (HCT-116, HCT-116 cells).
For the compound `COCc1cccc2[nH]c(-c3n[nH]c4ncc(Br)cc34)nc12` [Cpd 11, 5-bromo-3-(4-methoxymethyl-1H-benzoimidazol-2-yl)-1H-pyrazolo[3,4-b]pyridine], the IC50 in assay [1] is 358 nM; in assay [2], 916 nM; in assay [7], roughly 10000 nM; in assay [4] (HeLa), 1840 nM; in assay [5], 866 nM; in assay [6] (HCT-116, HCT-116 cells), 866 nM.
On to `CC(C)NC(=O)c1cccc2[nH]c(-c3n[nH]c4ncc(-c5cncc6ccccc56)cc34)nc12` [Cpd 18, 2-(5-isoquinolin-4-yl-1H-pyrazolo[3,4-b]pyridin-3-yl)-1H-benzoimidazole-4-carboxylic acid isopropylamide], for which the IC50 in assay [1] is 3.95 nM; in assay [2], 378 nM; in assay [3], greater than 10000 nM; in assay [7], greater than 100 nM; in assay [4] (HeLa), 35.2 nM; in assay [5] it was 64.7 nM. Also, the IC50 in assay [6] (HCT-116, HCT-116 cells) came to 41.5 nM.
On to `CCN(CC)C(=O)c1cccc2[nH]c(-c3n[nH]c4ncc(-c5cncc6ccccc56)cc34)nc12` [Cpd 19, 2-(5-isoquinolin-4-yl-1H-pyrazolo[3,4-b]pyridin-3-yl)-1H-benzoimidazole-4-carboxylic acid diethylamide], for which the IC50 is 53.4 nM in assay [1]; roughly 10000 nM in assay [2]; roughly 100000 nM in assay [3]; greater than 1000 nM in assay [7]; 975 nM in assay [4] (HeLa); 1570 nM in assay [5]. The IC50 in assay [6] (HCT-116, HCT-116 cells) amounted to 1830 nM.
With `CC(C)(C)NC(=O)c1cccc2[nH]c(-c3n[nH]c4ncc(-c5cncc6ccccc56)cc34)nc12` [Cpd 20, 2-(5-isoquinolin-4-yl-1H-pyrazolo[3,4-b]pyridin-3-yl)-1H-benzoimidazole-4-carboxylic acid tert-butylamide], the IC50 was 28.6 nM in assay [1]; roughly 10000 nM in assay [2]; greater than 10000 nM in assay [3]; roughly 1000 nM in assay [7]; 167 nM in assay [4] (HeLa); 71.1 nM in assay [5]. The same compound returned an IC50 in assay [6] (HCT-116, HCT-116 cells) of 55 nM.
For `CN1CCN(c2ccc3[nH]c(-c4n[nH]c5ncc(Br)cc45)nc3c2)CC1` [Cpd 30, 5-bromo-3-[5-(4-methyl-piperazin-1-yl)-1H-benzoimidazol-2-yl]-1H-pyrazolo[3,4-b]pyridine], the IC50 is 425 nM in assay [1]; 238 nM in assay [2]; greater than 10000 nM in assay [3]; roughly 1000 nM in assay [7]; 3100 nM in assay [4] (HeLa); 1700 nM in assay [5]. The compound further registered an IC50 in assay [6] (HCT-116, HCT-116 cells) of 2500 nM.
In the case of `COCc1cccc2[nH]c(-c3n[nH]c4ncc(-c5cccnc5)cc34)nc12` [Cpd 35, 3-(4-methoxymethyl-1H-benzoimidazol-2-yl)-5-pyridin-3-yl-1H-pyrazolo[3,4-b]pyridine], the IC50 in assay [1] is 29.3 nM; in assay [2] it was 160 nM; in assay [3], greater than 100000 nM; in assay [7], greater than 1000 nM; in assay [4] (HeLa), 650 nM; in assay [5], 32.8 nM. In addition, in assay [6] (HCT-116, HCT-116 cells), inhibition was half-maximal at 18.8 nM (IC50).
As to `COCc1cccc2[nH]c(-c3n[nH]c4ncc(-c5c[nH]c6ncccc56)cc34)nc12` [Cpd 37, 3-(4-methoxymethyl-1H-benzoimidazol-2-yl)-5-(1H-pyrrolo[2,3-b]pyridin-3-yl)-1H-pyrazolo[3,4-b]pyridine], the IC50 in assay [1] was 87.5 nM; in assay [2], greater than 10 nM; in assay [3], greater than 100000 nM; in assay [7], 191 nM; in assay [4] (HeLa), 1840 nM; in assay [5] it was 20.1 nM. In assay [6] (HCT-116, HCT-116 cells), this compound came in with an IC50 of 5 nM.
In the case of `CCNCc1cncc(-c2cnc3[nH]nc(-c4nc5c(COC)cccc5[nH]4)c3c2)c1C` [Cpd 59, ethyl-{5-[3-(4-methoxymethyl-1H-benzoimidazol-2-yl)-1H-pyrazolo[3,4-b]pyridin-5-yl]-4-methyl-pyridin-3-ylmethyl}-amine], the values for the IC50 in assay [1], in assay [2] and in assay [7] were 106 nM, 4670 nM and 8020 nM, respectively.
With `CCCNCc1cncc(-c2cnc3[nH]nc(-c4nc5cc(N6CCN(C)CC6)ccc5[nH]4)c3c2)c1` [Cpd 85, (5-{3-[5-(4-methyl-piperazin-1-yl)-1H-benzoimidazol-2-yl]-1H-pyrazolo[3,4-b]pyridin-5-yl}-pyridin-3-ylmethyl)-propyl-amine], the IC50 in assay [1] amounted to 1.84 nM; in assay [2], 160 nM; in assay [3] it was 1840 nM; in assay [7] it was 280 nM; in assay [4] it was 692 nM; in assay [5], 412 nM. This compound gave an IC50 in assay [6] (HCT-116 cells) of 774 nM.
With `COCCNCc1cncc(-c2cnc3[nH]nc(-c4nc5cc(N6CCN(C)CC6)ccc5[nH]4)c3c2)c1` [Cpd 86, (2-methoxy-ethyl)-(5-{3-[5-(4-methyl-piperazin-1-yl)-1H-benzoimidazol-2-yl]-1H-pyrazolo[3,4-b]pyridin-5-yl}-pyridin-3-ylmethyl)-amine], the IC50 in assay [1] was 5.17 nM; in assay [2], roughly 100 nM; in assay [3], 1050 nM; in assay [7], 428 nM; in assay [4], 2290 nM; in assay [5], 2490 nM. Also, half-maximal inhibition in assay [6] (HCT-116 cells) (IC50) required 2320 nM.
In the case of `CN1CCN(c2ccc3[nH]c(-c4n[nH]c5ncc(-c6cncc(CN7CCCC7)c6)cc45)nc3c2)CC1` [Cpd 87, 3-[5-(4-methyl-piperazin-1-yl)-1H-benzoimidazol-2-yl]-5-(5-pyrrolidin-1-ylmethyl-pyridin-3-yl)-1H-pyrazolo[3,4-b]pyridine], the IC50 in assay [1] worked out at 29.3 nM; in assay [2], 113 nM; in assay [3], 12100 nM; in assay [7] it was 445 nM; in assay [4] (HeLa) it was 2150 nM; in assay [5] it was 807 nM. Further, it took 1050 nM to reach half-maximal inhibition in assay [6] (HCT-116, HCT-116 cells) (IC50).
Consider `COC(=O)c1ccc2[nH]c(-c3n[nH]c4ncc(-c5cccnc5)cc34)nc2c1` [Cpd 91, 2-(5-pyridin-3-yl-1H-pyrazolo[3,4-b]pyridin-3-yl)-3H-benzoimidazole-5-carboxylic acid methyl ester], for which the IC50 in assay [1] was determined as 11.2 nM; in assay [4] (HeLa) it was 826 nM; in assay [5], 428 nM; in assay [6] (HCT-116, HCT-116 cells), 386 nM.
Take `COC(=O)c1cccc2[nH]c(-c3n[nH]c4ncc(-c5cccnc5)cc34)nc12` [Cpd 93, 2-(5-pyridin-3-yl-1H-pyrazolo[3,4-b]pyridin-3-yl)-1H-benzoimidazole-4-carboxylic acid methyl ester]: the IC50 in assay [4] (HeLa) was no less than 100000 nM; in assay [5], no less than 100000 nM; in assay [6] (HCT-116, HCT-116 cells), no less than 100000 nM.
